Experiments:
5AR type 2 = tested on: 5AR type 2; design: method as in PMID 26377677; details: read-out: IC50 against 5AR type 2; cited from earlier work
[1] = tested on: NHDF cells (normal human dermal fibroblasts); test: MTT cell proliferation assay, NHDF cells; format: cell-based; details: Homo sapiens, NHDF, 72 h, non-tumoral cells, read-out: Estimated IC50, NHDF
Protocol: (§1) LNCaP, PC-3, MCF-7, PNT1A, N27, and NHDF cells were obtained from the American Type Culture Collection (ATCC; Manassas, VA, USA) and were cultured in 75 cm^2 culture flasks at 37 °C in a humidified air incubator with 5% CO2. LNCaP, PC-3, PNT1A, and N27 cells, respectively, were cultured in RPMI 1640 medium (Sigma-Aldrich, Inc. St. Louis, MO, USA) with 10% fetal bovine serum (FBS; Sigma-Aldrich, Inc. St. Louis, MO, USA) and 1% of the antibiotic mixture of 10,000 U/mL penicillin G and […] streptomycin (Sp, Sigma-Aldrich, Inc. St. Louis, MO, USA). MCF-7 cells were cultured in DMEM medium (Sigma-Aldrich, Inc. St. Louis, MO, USA) supplemented with 10% fetal bovine serum (FBS; Sigma-Aldrich, Inc. St. Louis, MO, USA) and 1% antibiotic/antimycotic (10,000 U/mL penicillin G, […] streptomycin, and 25 µg/mL amphotericin B: Ab, Sigma-Aldrich, Inc. St. Louis, MO, USA). Finally, NHDF cells were cultured in RPMI 1640 medium supplemented with 10% FBS, 2 mM L-glutamine, 10 mM HEPES, 1 mM sodium pyruvate, and 1% of the antibiotic/antimycotic Ab, and these cells were used in passages 10th to 14th. For all cell types, the medium was renewed every 2 days until cells nearly reached the confluence state. When cells reach approximately 90–95% confluence, they are gently detached by trypsinization (trypsin-EDTA solution: 0.125 g/L of trypsin and 0.02 g/L of EDTA). Before each experiment, viable cells were counted in a Neubauer chamber by a trypan-blue exclusion assay and adequately diluted in the appropriate complete cell culture medium.
(§2) All tested compounds were dissolved in dimethyl sulfoxide (DMSO; Sigma-Aldrich, Inc. St. Louis, MO, USA) at a concentration of 10 mM and stored at 4 °C. From the mother-solutions, the diluted solutions of the compounds, in different concentrations, were prepared in the respective complete culture medium before each experiment.
(§3) After reaching a confluence state, cells were trypsinized and counted by the trypan-blue exclusion assay and then seeded with an initial density of 2 × 10^4 cells/mL in 96-well culture plates (Nunc, Apogent, Denmark) and left to adhere and grow for 48 h. Subsequently, the medium was removed, and the cells were treated with compound solutions (10 and 50 µM for preliminary studies and 0.01, 0.1, 1, 10, 50, and 100 µM for concentration-response studies) in complete culture medium for 72 h. 5-Fluorouracil (5-FU) was used as a positive control, and untreated cells were used as the negative control. Compounds leading to cell proliferation relative to control clearly below 50%, at 10 µM, or clearly below 25%, at 50 µM, in the screening studies were selected to concentration-response studies in tumoral cell lines. Each experiment was performed in quadruplicate and independently at least two times. The in vitro antiproliferative effects were evaluated by the MTT assay (Sigma-Aldrich, Inc. St. Louis, MO, USA). After the incubation period, the medium was removed, and 100 µL of phosphate buffer saline (PBS, NaCl 137 mM; KCl 2.7 mM; Na2HPO4 10 mM; and KH2PO4 1.8 mM in deionized water with a pH adjusted to 7.4) were used to wash the cells. Then, 100 µL of the MTT solution (5 mg/mL) was prepared in the appropriate serum-free medium and added to each well, followed by incubation for 4 h at 37 °C. Hereafter, the MTT containing medium was removed, and the formazan crystals were dissolved in DMSO. Then, the absorbance was measured at 570 nm using a xMarkTM microplate spectrophotometer from BIO-RAD Laboratories. Cell viability values were expressed as percentages relative to the negative control.

[2] = tested on: PNT1A (normal prostate cells); test: MTT cell proliferation assay, PNT1A cells; format: cell-based; details: Homo sapiens, PNT1A, 72 h, non-tumoral cells, read-out: Estimated IC50, PNT1A
Protocol: as §1, §2, §3

[3] = tested on: N27 (rat dopaminergic neuronal cells); test: MTT cell proliferation assay, N27 cells; format: cell-based; details: Rattus norvegicus, N27, 72 h, non-tumoral cells, read-out: Estimated IC50, N27
Protocol: as §1, §2, §3

[4] = tested on: LNCaP cells (androgen-dependent prostatic cancer); test: MTT cell proliferation assay, LNCaP cells; format: cell-based; details: Homo sapiens, LNCaP; MTT, 72 h, tumoral cells; read-out: Estimated IC50, LNCaP
Protocol: as §1, §2, §3

[5] = tested on: PC-3 cells (androgen-independent prostatic cancer); test: MTT cell proliferation assay, PC-3 cells; format: cell-based; details: Homo sapiens, PC-3; MTT, 72 h, tumoral cells; read-out: Estimated IC50, PC-3
Protocol: as §1, §2, §3

[6] = tested on: MCF-7 cells (estrogen-responsive breast cancer cells); test: MTT cell proliferation assay, MCF-7 cells; format: cell-based; details: Homo sapiens, MCF7; MTT, 72 h, tumoral cells; read-out: Estimated IC50, MCF-7
Protocol: as §1, §2, §3

MCF-7 cells [7] = test: Immunocytochemistry assay, Ki67 staining; format: cell-based; details: 48 h
Protocol: MCF-7 cells were trypsinized and counted by the trypan-blue exclusion assay, and then cells were seeded with an initial density of 3 × 10^4 cells/mL in 24-well culture plates (Nunc, Apogent, Denmark) containing circular coverslips of 10 mm diameter. Following seeding (48 h), cells were treated with 1 and 10 µM concentrations of 5-FU, as positive controls, and steroid 19 for 48 h. Untreated cells were used as a negative control. After this period, photograph shots were acquired at an optical microscope coupled with a digital camera (Supplementary Material, S2). Subsequently, the medium was removed, and cells were fixed with 10% formalin (15 min, room temperature). After fixation, cells were washed three times with PBS, permeabilized, and blocked for non-specific binding sites for 1 h with 0.5% Triton X-100 and 6% BSA at room temperature. Cells were incubated at 4 °C with 30 μL/coverslip of primary antibody, rabbit polyclonal anti-Ki67 (1:50, Abcam Plc.), prepared in 0.3% BSA and 0.1% Triton X-100, overnight. Then, cells were washed three times with PBS and incubated for 1 h, at room temperature, with 30 μL/coverslip of a solution containing the secondary antibody, Alexa Fluor 488 donkey anti-rabbit (1:200, Life Technologies), and the nuclear marker Hoechst-33342 (1:500, Life Technologies) prepared in PBS. Lastly, the coverslips were washed three times with PBS, mounted on a drop of the fluoroshield mounting medium (Abcam, Plc.) on a microscope slide, and left to dry for 24 h. Photomicrographs were taken using an Axio Imager A1 microscope (Carl Zeiss, Göttingen, Germany) with the 40 × objective.

MCF-7 cells [8] = test: PI incorporation (propidium iodide staining); format: cell-based; details: 48 h
Protocol: After 48 h of being seeded at the same conditions explained in the previous (Section 2.2.4), MCF-7 cells were treated with the steroidal derivatives 19 and 5-FU at 1 and 10 µM and maintained in culture for 48 h. Untreated cells were also used as a negative control. Subsequently, cells were incubated with 20 µL/per well of a propidium iodide solution (PI; 1 mg/mL in PBS; Sigma-Aldrich Co. LLC) for 25 min at 37 °C. Then, the medium was removed, and the cells were fixed with 10% formalin for 15 min at room temperature. Cells were washed three times with PBS and incubated with 30 µL/per coverslip of Hoechst-33342 (1:500) for 10 min. After incubation, cells were washed three times with PBS. Coverslips were mounted on a drop of the fluoroshield mounting medium on a microscope slide, left to dry for 24 h, and then visualized in a Zeiss Axio Imager A1 microscope with the 40× objective.

MCF-7 cells [9] = test: Nearest neighbor distance analysis with ImageJ; format: cell-based; details: MCF-7, 1 and 10 µM, 48 h
Source text: The nuclear measurements were achieved by converting 16-bit photomicrographs of Hoechst 33342-stained nuclei in different studied conditions into 8-bit images. Then, these imagens were autothresholded to binary photos using the default “Make binary” function of ImageJ (v. 1.49) software (NIH Image, Bethesda, MD, USA). Cell nuclei that are touching were separated and fragments were discarded based on area through “Analyze Particle” function. This function also provides several other information, such as nuclear area (NA), circumference, and form factor [26]. Furthermore, the “Nearest Neighbor Distance” (NND) was determined. This function allows measuring the distance between each cell nucleus and the nearest ones, providing information about cell distribution.

[10] = tested on: T47-D cells (breast cancer); design: method as in PMID 23635011; details: MTT assay, read-out: IC50 against T47-D cells; cited from earlier work
[11] = tested on: KB (nasopharyngeal epidermoid carcinoma); design: method as in PMID 23635011; details: read-out: IC50 against KB cells; cited from earlier work

In the case of `C[C@]12CCC3C(C[C@@H]4O[C@@]45C[C@@H](O)CC[C@]35C)C1CC=C2C(=O)COC(=O)c1ccc(F)cc1` (stereo partly drawn) [21(p-fluoro)benzoyloxy-5α,6α-epoxy-3β-hydroxypregna-16-en-20-one], the IC50 (5AR type 2) is given as 0.179 µM.
For `O=c1[nH]cc(F)c(=O)[nH]1` [Compound 5-FU, 5-Fluorouracil, reference compound], the IC50 [1] was 6.34 µM, the IC50 [2] was 6.48 µM and the IC50 [3] was 3.19 µM. For the same molecule, the IC50 [4] was 9.43 µM, the IC50 [5] was 21.2 µM and the IC50 [6] was 6.3 µM. The “Ki67-positive cells relative to control” value (MCF-7 cells [7]; MCF-7, 1 µM) was “none of the compounds significantly affected”, the “Ki67-positive cells relative to control” value (MCF-7 cells [7]; MCF-7, 10 µM) was “statistically significant decrease” and the “PI-positive cells relative to the negative control” value (MCF-7 cells [8]; MCF-7, 1 µM) was “no significant effect”. The “PI-positive cells relative to the negative control” value (MCF-7 cells [8]; MCF-7, 10 µM) was “significantly increase” and the “cell distribution (nearest neighbor distance, NND)” value (MCF-7 cells [9]) was “more random distribution with nuclei more spaced”.
In the case of `C[C@]12CC[C@H](O)CC1=CCC1C2CC[C@]2(C)C(=O)/C(=C/c3cccc(Cl)c3)CC12` (some centres unmarked) [reference compound], the IC50 [10] is given as 1.7 µM and the IC50 [11] is given as 0.6 µM.

From PMC10045663, “Synthesis, In Vitro Biological Evaluation of Antiproliferative and Neuroprotective Effects and In Silico Studies of Novel 16E-Arylidene-5α,6α-epoxyepiandrosterone Derivatives” (Biomedicines, 2023)
